Source: patent US11491105B2, “Methods of treating microbial infections, including mastitis” (priority 2013, dated 2022)

System: red blood cells
Assay: Eukaryotic cell toxicity testing (erythrocyte haemolysis)
Type: cell-based
Settings: 2% blood cell solution, 37° C., one hour
Experimental: Erythrocyte haemolysis was used in order to test the toxicity of all five compounds to eukaryotic cells. Blood samples were washed using 9.1 g/L saline solution and centrifuged at 2500 rpm for 10 minutes. This process was repeated until cellular debris and partially lysed cells were removed from solution. 2 mL of the remaining blood cells were suspended in 98 mL of 9.1 g/L saline solution to produce a 2% blood cell solution, which was dispensed in 90 μL volumes into the wells of a 96 well plate. The compound solutions as well as chloramphenicol were prepared from stock solution to a concentration of 256 μg/mL (as described above). Chloramphenicol was used as a negative control for erythrocyte lysis while a ready to use solution of amphotericin B was used as a positive control. 90 μL of the compounds and controls were added to the final well in different rows. These compounds were serially diluted across the row in order to test the different concentrations of antimicrobials. Wells containing only 2% blood solution were also used to assess variation between readings from different columns on the 96 well plates. These tests were incubated at 37° C. for one hour and then assessed for lysis both visually and using a microplate reader to measure optical density at 600 nm wavelengths. Each test was performed in duplicate and then repeated in quadruplicate in order to ensure accuracy.

Structure (SMILES): CC[C@@H](C(=O)[C@@H](C)[C@@H](O)[C@H](C)CCc1ccc(C)c(O)c1C(=O)O)[C@H]1O[C@](CC)([C@H]2CC[C@](O)(CC)[C@H](C)O2)C[C@@H]1C [LP 1369, Lasalocid]
- concentration at which lysis was most visually evident: 64000 ng/mL
- concentration range in which some lysis of cells was observed: 32000 to 128000 ng/mL
